Results as given in patent publication US5952189A (priority 1997, dated 1999).

System: LPS-induced hepatotoxicity

## C[C@H](NC(=O)OCc1ccccc1)C(=O)N[C@@H](C)C(=O)NC(Cc1ccccc1)B(O)O (some centres unmarked) [DK120, carbobenzoxy-ala-ala-borophe]
Gln + LPS + DK120 5 mg/kg, without DK120 33
  % Mortality: 0%
Gln + LPS + DK120 5 mg/kg, without DK120 100
  AST: 79 +/- 10 U/ml
Gln + LPS + DK120 5 mg/kg, without DK120 334
  ALT: 182 +/- 17 U/ml
LPS or SEB plus Gln, DK120 30 min prior
  Effect on serum transaminase levels after LPS or SEB: significant reduction in the serum transaminase levels
mouse, in vivo
  Effect on LPS-induced mortality, long term survival (FIG. 9): could delay or prevent LPS-induced mortality
